Holding throughout (assay type): functional
The target in test [1] is T1, Hexokinase HKDC1 (Homo sapiens, UniProt Q2TB90).
T1 sequence (Q2TB90 whole entry): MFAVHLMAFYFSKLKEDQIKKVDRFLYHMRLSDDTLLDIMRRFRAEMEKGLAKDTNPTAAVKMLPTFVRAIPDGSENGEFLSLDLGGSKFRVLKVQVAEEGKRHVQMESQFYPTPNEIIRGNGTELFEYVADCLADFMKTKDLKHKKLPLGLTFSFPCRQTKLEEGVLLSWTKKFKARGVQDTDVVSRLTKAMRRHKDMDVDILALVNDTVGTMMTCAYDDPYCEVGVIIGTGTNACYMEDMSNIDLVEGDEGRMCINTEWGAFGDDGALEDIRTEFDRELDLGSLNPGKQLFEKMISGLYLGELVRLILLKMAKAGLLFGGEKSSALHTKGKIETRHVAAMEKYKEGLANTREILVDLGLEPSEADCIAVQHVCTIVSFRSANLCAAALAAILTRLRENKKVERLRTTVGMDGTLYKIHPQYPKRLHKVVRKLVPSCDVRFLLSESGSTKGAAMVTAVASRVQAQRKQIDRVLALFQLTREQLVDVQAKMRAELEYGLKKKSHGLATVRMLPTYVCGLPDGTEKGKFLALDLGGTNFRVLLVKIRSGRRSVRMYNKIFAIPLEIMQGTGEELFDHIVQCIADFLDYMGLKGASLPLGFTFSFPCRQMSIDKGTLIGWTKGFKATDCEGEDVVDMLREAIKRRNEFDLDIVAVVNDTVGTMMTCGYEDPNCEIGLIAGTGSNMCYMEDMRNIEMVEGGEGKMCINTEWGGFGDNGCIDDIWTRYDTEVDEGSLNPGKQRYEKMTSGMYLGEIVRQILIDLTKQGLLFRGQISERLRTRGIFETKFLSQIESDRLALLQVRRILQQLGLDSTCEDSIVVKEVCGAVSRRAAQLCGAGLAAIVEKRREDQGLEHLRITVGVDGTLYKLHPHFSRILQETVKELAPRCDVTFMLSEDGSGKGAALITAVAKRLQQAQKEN
The test can be described thus: SAR analysis of small molecule inhibitors of hexokinase domain containing I (HKDC1). [Related pubchem assays (depositor defined):AID493160, AID493190].

Test [2] addresses T2, Heat shock factor protein 1 (Mus musculus, UniProt P38532).
T2 sequence (P38532 whole entry): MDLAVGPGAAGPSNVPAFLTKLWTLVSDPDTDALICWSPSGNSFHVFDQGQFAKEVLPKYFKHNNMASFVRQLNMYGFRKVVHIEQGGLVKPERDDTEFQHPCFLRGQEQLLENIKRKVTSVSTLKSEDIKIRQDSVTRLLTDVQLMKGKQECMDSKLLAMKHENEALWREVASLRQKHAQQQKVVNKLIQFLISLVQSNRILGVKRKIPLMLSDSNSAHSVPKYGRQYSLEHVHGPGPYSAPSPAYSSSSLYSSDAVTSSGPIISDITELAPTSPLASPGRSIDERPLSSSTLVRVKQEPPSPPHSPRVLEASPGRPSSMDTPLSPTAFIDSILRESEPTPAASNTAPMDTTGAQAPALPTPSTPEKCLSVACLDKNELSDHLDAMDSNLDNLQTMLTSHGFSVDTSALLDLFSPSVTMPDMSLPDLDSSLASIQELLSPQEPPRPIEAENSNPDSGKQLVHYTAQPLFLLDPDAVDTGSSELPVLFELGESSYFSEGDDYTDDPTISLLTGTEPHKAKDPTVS
The test can be described thus: decrease of HSF1-responsive luciferase luminescence – cell-based, NIH3T3, dose retest, confirmation (AID 2382).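 Also: NIH3T3 fibroblasts with HSF1-driven luciferase reporter stressed by proteasome inhibitor MG132; luminescence from HSF1-driven luciferase expression after 8 hours of MG132 stress.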

The target of test [3] is T3, Apoptotic protease-activating factor 1 (Homo sapiens, UniProt O14727).
T3 sequence (O14727 whole entry): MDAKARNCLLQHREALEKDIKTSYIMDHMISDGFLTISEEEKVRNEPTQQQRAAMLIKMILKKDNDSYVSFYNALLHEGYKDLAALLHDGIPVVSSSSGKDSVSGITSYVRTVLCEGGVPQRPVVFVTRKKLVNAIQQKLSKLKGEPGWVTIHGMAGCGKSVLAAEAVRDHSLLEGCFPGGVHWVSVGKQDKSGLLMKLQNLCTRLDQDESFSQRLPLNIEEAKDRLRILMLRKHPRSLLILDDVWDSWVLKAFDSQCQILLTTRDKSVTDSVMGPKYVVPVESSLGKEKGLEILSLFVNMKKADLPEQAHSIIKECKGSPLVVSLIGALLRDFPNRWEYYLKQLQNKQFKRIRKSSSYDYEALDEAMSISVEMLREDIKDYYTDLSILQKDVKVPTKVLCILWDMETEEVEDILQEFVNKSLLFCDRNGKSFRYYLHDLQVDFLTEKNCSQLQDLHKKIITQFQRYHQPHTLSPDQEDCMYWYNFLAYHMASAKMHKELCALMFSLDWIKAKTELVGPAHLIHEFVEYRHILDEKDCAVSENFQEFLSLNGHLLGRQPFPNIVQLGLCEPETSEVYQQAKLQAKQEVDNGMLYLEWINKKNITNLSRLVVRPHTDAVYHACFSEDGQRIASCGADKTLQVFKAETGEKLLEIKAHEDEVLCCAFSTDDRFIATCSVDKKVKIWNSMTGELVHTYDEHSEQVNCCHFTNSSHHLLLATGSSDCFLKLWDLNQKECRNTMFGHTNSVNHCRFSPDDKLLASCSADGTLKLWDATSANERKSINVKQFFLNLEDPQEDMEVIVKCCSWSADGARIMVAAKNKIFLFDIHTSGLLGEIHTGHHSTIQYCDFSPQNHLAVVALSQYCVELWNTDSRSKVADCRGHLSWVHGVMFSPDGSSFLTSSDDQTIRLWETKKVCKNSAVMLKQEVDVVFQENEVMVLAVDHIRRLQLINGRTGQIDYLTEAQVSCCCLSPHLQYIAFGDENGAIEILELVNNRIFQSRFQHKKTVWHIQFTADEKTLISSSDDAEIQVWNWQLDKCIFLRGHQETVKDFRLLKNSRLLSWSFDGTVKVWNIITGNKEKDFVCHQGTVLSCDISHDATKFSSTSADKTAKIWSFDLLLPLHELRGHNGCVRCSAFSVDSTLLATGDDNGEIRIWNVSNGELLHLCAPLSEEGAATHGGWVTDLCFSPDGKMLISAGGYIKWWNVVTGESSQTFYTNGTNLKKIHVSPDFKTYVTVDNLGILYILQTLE

SMILES strings stand for the structures. Calls of active or inactive are those of the source.

For orientation: IC50 means the concentration that gives 50% inhibition. With `O=c1c2ccccc2nc(/C=C/c2cccnc2)n1Cc1ccccc1`, the IC50 in test [1] is > 80 µM (inactive).
What is called EC50 is the concentration giving half of the maximal effect. In the case of `O=C(O)c1ccc(N/N=C/c2ccc(OC(=O)c3ccccc3Cl)cc2)cc1`, the EC50 in test [2] is 0.167 µM (active).
Turning to `COC(=O)c1ccccc1NC1=C/C(=N\S(=O)(=O)c2ccc(C(=O)O)cc2)c2ccccc2C1=O`, in test [3], the IC50 is 7.19 µM (active).

(Values after ChEMBL document CHEMBL1201862, “PubChem BioAssay data set” (2004).)
